Patent US6489098B1, “Means and methods for monitoring nucleoside reverse transcriptase inhibitor antiretroviral therapy and guiding therapeutic decisions in the treatment of HIV/AIDS” (ViroLogic, Inc., priority 1998, dated 2002)
“Also recorded” adds a separate entry of the source.

Columns and labels:
[1] = test system: patient RTV-136, RTV-240, RTV-955 and RTV-960 (A62V, V75I, F77L, F116Y, Q151M); test: Phenotypic susceptibility assay, patient isolates with multi-NRTI resistance mutations; assay type: cell-based, HIV-1; conditions: for susceptibility compared to wild-type control RTV: patient RTV pools with MDR mutations
Description: (§1) In these experiments patient-derived segment(s) corresponding to the HIV protease and reverse transcriptase coding regions were either patient-derived segments amplified by the reverse transcription-polymerase chain reaction method (RT-PCR) using viral RNA isolated from viral particles present in the serum of HIV-infected individuals or were mutants of wild type HIV-1 made by site directed mutagenesis of a parental clone of resistance test vector DNA. Isolation of viral RNA was performed using standard procedures (e.g. RNAgents Total RNA Isolation System, Promega, Madison Wis. or RNAzol, Tel-Test, Friendswood, Tex.). The RT-PCR protocol was divided into two steps. A retroviral reverse transcriptase [e.g. Moloney MuLV reverse transcriptase (Roche Molecular Systems, Inc., Branchburg, N.J.), or avian myeloblastosis virus (AMV) reverse transcriptase, (Boehringer Mannheim, Indianapolis, Ind.)] was used to copy viral RNA into cDNA. The cDNA was then amplified using a thermostable DNA polymerase [e.g. Taq (Roche Molecular Systems, Inc., Branchburg, N.J.), Tth (Roche Molecular Systems, Inc., Branchburg, N.J.), PrimeZyme (isolated from Thermus brockianus, Biometra, Gottingen, Germany)] or a combination of thermostable polymerases as described for the performance of “long PCR” (Barnes, W. M., (1994) Proc. Natl. Acad. Sci, USA 91, 2216-2220) [e.g. Expand High Fidelity PCR System (Taq+Pwo), (Boehringer Mannheim. Indianapolis, Ind.) OR GeneAmp XL PCR kit (Tth+Vent), (Roche Molecular Systems, Inc., Branchburg, N.J.)].
(§2) Resistance test vectors incorporating the “test” patient-derived segments were constructed as described in PCT International Application No. PCT/US97/01609, filed Jan. 29, 1997 using an amplified DNA product of 1.5 kB prepared by RT-PCR using viral RNA as a template and oligonucleotides PDSApa (1) and PDSAge (2) as primers, followed by digestion with ApaI and AgeI or the isoschizimer PINAI. To ensure that the plasmid DNA corresponding to the resultant resistance test vector comprises a representative sample of the HIV viral quasi-species present in the serum of a given patient, many (>100) independent E. coli transformants obtained in the construction of a given resistance test vector were pooled and used for the preparation of plasmid DNA.
(§3) Resistance tests were carried out with resistance test vectors using two host cell types. Resistance test vector viral particles were produced by a first host cell (the resistance test vector host cell) that was prepared by transfecting a packaging host cell with the resistance test vector and the packaging expression vector. The resistance test vector viral particles were then used to infect a second host cell (the target host cell) in which the expression of the indicator gene is measured.
(§4) The resistance test vectors containing a functional luciferase gene cassette were constructed and host cells were transfected with the resistance test vector DNA. The resistant test vectors contained patient-derived reverse transcriptase and protease sequences that were either susceptible or resistant to the antiretroviral agents, such as nucleoside reverse transcriptase inhibitors, non-nucleoside reverse transcriptase inhibitors and protease inhibitors. The resistance test vector viral particles produced by transfecting the resistance test vector DNA into host cells, either in the presence or absence of protease inhibitors, were used to infect target host cells grown either in the absence of NRTI or NNRTI or In the presence of increasing concentrations of the drug. The amount of luciferase activIty produced in infected target host cells in the presence of drug was compared to the amount of luciferase produced in infected target host cells in the absence of drug. Drug resistance was measured as the amount of drug required to inhibit by 50% the luciferase activity detected in the absence of drug (Inhibitory concentration 50%, IC50). […]

[2] = test system: HIV strains resistant to abacavir; conditions: cited from earlier work
[3] = test system: patient RTV-621, RTV-285, RTV-690, RTV-770 and RTV-771 (T69SSA, T69SSG, T69SSS); test: Phenotypic susceptibility assay, patient isolates with T69SSX mutations/insertions; assay type: cell-based, HIV-1; conditions: for susceptibility compared to wild-type control RTV: patient samples with insertions at 69
Description: as §1, §2, §3, §4

[4] = test system: HIV-1 RT mutant resistance test vector 41 + 215 (M41L and T215Y); test: Phenotypic susceptibility assay, site directed RTV 41 + 215; assay type: cell-based; conditions: RTV with 41 + 215; 4 replicates
Description: as §3
The resistance test vectors containing a functional luciferase gene cassette were constructed and host cells were transfected with the resistance test vector DNA. The resistant test vectors contained patient-derived reverse transcriptase and protease sequences that were either susceptible or resistant to the antiretroviral agents, such as nucleoside reverse transcriptase inhibitors, non-nucleoside reverse transcriptase inhibitors and protease inhibitors. The resistance test vector viral particles produced by transfecting the resistance test vector DNA into host cells, either in the presence or absence of protease inhibitors, were used to infect target host cells grown either in the absence of NRTI or NNRTI or In the presence of increasing concentrations of the drug. The amount of luciferase activIty produced in infected target host cells in the presence of drug was compared to the amount of luciferase produced in infected target host cells in the absence of drug. Drug resistance was measured as the amount of drug required to inhibit by 50% the luciferase activity detected in the absence of drug (Inhibitory concentration 50%, IC50). The IC50 values were determined by plotting percent drug inhibition vs. log 10 drug concentration.
Host cells were seeded in 10-cm-diameter dishes and were transfected several days after plating with resistance test vector plasmid DNA and the envelope expression vector. Transfections were performed using a calcium-phosphate precipitation procedure. The cell culture media containing the DNA precipitate was replaced with fresh medium, from one to 24 hours, after transfection. Cell culture media containing resistance test vector viral particles was harvested one to four days after transfection and was passed through a […] filter before being stored at −80° C. HIV capsid protein (p24) levels in the harvested cell culture media were determined by an EIA method as described by the manufacturer (SIAC; Frederick, Md.). Before infection, target cells (293 and 293/T) were plated in cell culture media. Control infections were performed using cell culture media from mock transfections (no DNA) or transfections containing the resistance test vector plasmid DNA without the envelope expression plasmid. One to three or more days after infectIon the media was removed and cell lysis buffer (Promega) was added to each well. Cell lysates were assayed for luciferase activity (FIG. 3). The inhibitory effect of the drug was determined using the following equation:
% luciferase inhibition=1−(RLUluc[drug]÷RLUluc)×100
where RLUluc [drug] is the relative light unit of luciferase activity in infected cells in the presence of drug and RLUluc is the Relative Light Unit of luciferase activity in infected cells in the absence of drug. IC50 values were obtained from the sigmoidal curves that were generated from the data by plotting the percent inhibition of luciferase activity vs. the log 10 drug concentration. The drug inhibition curves are shown in (FIG. 3).
Genotypic changes that are observed to correlate with changes in phenotypic patterns of drug susceptibility are evaluated by construction of resistance test vectors containing the specific mutation on a defined, wild-type (drug susceptible) genetic background. Mutations may be incorporated alone and/or in combination with other known drug resistance mutations that are thought to modulate the susceptibility of HIV to a certain drug or class of drugs. […]

Structure (SMILES)	susceptibility compared to wild-type control RTV [1]	cross resistance of abacavir-resistant strains [2]	susceptibility compared to wild-type control RTV [3]	Average fold reduction in susceptibility [4] [fold]	fold resistance ([2]; multiple mutations (at least three)) [fold]	fold reduced susceptibility ([1]; four patient viruses with multi-NRTI resistance mutations (FIG. 4))	fold reduced susceptibility ([3]; four patient viruses with T69SSX mutations/insertions (FIG. 5))
Nc1ccn([C@H]2CC[C@@H](CO)O2)c(=O)n1 [ddC, zalcitabine]	decreases in susceptibility	Cross resistance	decreased susceptibility	1.21	–	–	–
Nc1nc(NC2CC2)c2ncn([C@H]3C=C[C@@H](CO)C3)c2n1 [ABC, abacavir]	decreases in susceptibility	–	decreased susceptibility	1.68	10	–	–
O=c1[nH]cnc2c1ncn2[C@H]1CC[C@@H](CO)O1 [ddI, didanosine]	decreases in susceptibility	Cross resistance	decreased susceptibility	1.09	–	–	–
Cc1cn([C@H]2C[C@H](N=[N+]=[N-])[C@@H](CO)O2)c(=O)[nH]c1=O [AZT, zidovudine]	decreases in susceptibility	not to d4T or ZDV	decreased susceptibility	17.82	–	–	–
Cc1cn([C@H]2C=C[C@@H](CO)O2)c(=O)[nH]c1=O [d4T, stavudine]	decrease in susceptibility to d4T; also recorded: decreases in susceptibility	not to d4T or ZDV	decrease in susceptibility to d4T; also recorded: significant reduction in d4T susceptibility; also recorded: decreased susceptibility	1.61	–	4-12 fold	2-10 fold
